Test system: Fibroblasts
Assay: Contraction of collagen lattice by MGO-stressed fibroblasts
Assay type: cell-based
Conditions: MGO contact 2 days, with or without extract at 0.5%; control without MGO = 100%; n=3
From the text: The contraction function of fibroblasts is important for ensuring a good elasticity to the skin. The application on fibroblasts of the glycating substance (MGO: methylglyoxal) allows to mimic in accelerate the loss of contractility of fibroblasts occurring during aging. Fibroblasts were brought into contact with the MGO for 2 days, in nontoxic quantity, with or without the extract according to the invention. After this contact, the cells were included in a collagen gel to form a dermis equivalent called lattice. Fibroblasts anchor themselves to the collagens and begin to contract the gel like they do in the skin. This contraction was followed after 16 h and measured using an ImageQuant LAS4000 imager by following the modification on the gel surface.

CC(=O)C=O [MGO, methylglyoxal]
Gel contraction at 16 h (%): 59.9%

From patent US12433835B2, “Cosmetic composition and treatment for treating skin sagging” (Sederma, priority 2020, dated 2025)
